Measured values reported in publication PMC10066365, “Nemacol is a small molecule inhibitor of C. elegans vesicular acetylcholine transporter with anthelmintic potential” (Nature Communications, 2023).
Values joined by “and” are separate entries in the source; they are usually repeats but may differ in a detail not shown here. Equal entries are not always repeated.

Key:
[1] = test system: Dirofilaria immitis microfilariae; assay: Dirofilaria immitis microfilariae immobility assay (DiroImager, 72 h); conditions: Dirofilaria immitis microfilariae
Experimental: We conducted experiments with the Missouri isolate of Dirofilaria immitis in two labs. In the first set of experiments, shown as part of Fig. 3c, D. immitis microfilariae and larval stage 3 (L3) worms were assayed in the laboratories of Bayer Animal Health GmbH (Monheim, Germany). For microfilariae immobility assays, approximately 250 freshly purified microfilariae were cultured in single wells of a 96-well microtiter plate containing supplemented RPMI 1640 medium[68],[69]. […] Microfilariae exposed to medium substituted with 1% DMSO were used as negative controls. Motility of microfilariae was evaluated after 72 h of drug exposure using an image-based approach—DiroImager, developed by Bayer Technology Services. As described in detail in refs. [68],[69], the DiroImager is an automated high-throughput platform that allows for high-resolution optical imaging of an entire 96-well microtiter plate.

Pristionchus pacificus = Pristionchus pacificus motor disruption dose-response on solid media, 1 h; conditions: for mean % any phene (coiled, jerky-Unc or paralyzed): Pristionchus pacificus young adults, mean of three biological replicates; for EC50: Pristionchus pacificus, 1 h, read-out: P. pacificus motor disruption EC50
C. elegans = C. elegans motor phenotype scoring on solid media (Punc/jerky-unc, coiled, paralyzed), wild-type young adults; format: in vivo, Caenorhabditis elegans; conditions: for any phene, mean % fraction of young adults exhibiting any phenotype (coiled, jerky-Unc or paralyzed) / atypical locomotion (number of animals) / coiled (number of animals) / no phene (number of animals) / paralyzed (number of animals): one hour; for any phene, mean % fraction of young adults exhibiting any phenotype (coiled, jerky-Unc or paralyzed): mean of three biological replicates; for atypical locomotion (number of animals) / coiled (number of animals) / no phene (number of animals) / paralyzed (number of animals): young adults, 20 animals per trial, single replicate counts; for EC50: Caenorhabditis elegans, any motor phenotype after 1 h on solid media, ± 95% CI, read-out: C. elegans - motor disruption EC50
[2] = test system: Dirofilaria immitis L3/L4; assay: Dirofilaria immitis L3/L4 motility assay (DiroImager, 72 h); conditions: Dirofilaria immitis L4
[3] = conc 3.75, observed at one hour

Compound	% effect (motility), DIROIM MF ([1]; 0.016 µM)	% effect (motility), DIROIM MF ([1]; 0.08 µM)	% effect (motility), DIROIM MF ([1]; 0.4 µM)	% effect (motility), DIROIM MF ([1]; 2 µM)	% effect (motility), DIROIM MF ([1]; 10 µM)	EC50 (Pristionchus pacificus)	any phene, mean % fraction of young adults exhibiting any phenotype (coiled, jerky-Unc or paralyzed) (C. elegans; 3.75uM)	atypical locomotion (number of animals) (C. elegans; 3.75uM)	coiled (number of animals) (C. elegans; 3.75uM)	no phene (number of animals) (C. elegans; 3.75uM)	paralyzed (number of animals) (C. elegans; 3.75uM)	any phene, mean % fraction of young adults exhibiting any phenotype (coiled, jerky-Unc or paralyzed) (C. elegans; 15uM)	atypical locomotion (number of animals) (C. elegans; 15uM)	coiled (number of animals) (C. elegans; 15uM)	no phene (number of animals) (C. elegans; 15uM)	paralyzed (number of animals) (C. elegans; 15uM)	any phene, mean % fraction of young adults exhibiting any phenotype (coiled, jerky-Unc or paralyzed) (C. elegans; 60uM)	atypical locomotion (number of animals) (C. elegans; 60uM)	coiled (number of animals) (C. elegans; 60uM)	no phene (number of animals) (C. elegans; 60uM)	other results
O=[N+]([O-])c1ccc(N2CCN(c3ccccc3O)CC2)cc1 [Nemacol-13]	0%	0%	0%	0%	0%	> 60 µM	0.8333%	0 and 1	0	20 and 19	0	2.5%	0 and 2 and 1	0	20 and 18 and 19	0	20%	0 and 11 and 13	0	20 and 9 and 7	mean % any phene (coiled, jerky-Unc or paralyzed) (Pristionchus pacificus; [3]): 0%; mean % any phene (coiled, jerky-Unc or paralyzed) (Pristionchus pacificus; conc 15, observed at one hour): 0%; mean % any phene (coiled, jerky-Unc or paralyzed) (Pristionchus pacificus; conc 60, observed at one hour): 9.167%; paralyzed (number of animals) (C. elegans; 60uM): 0; EC50 (C. elegans): > 60 µM; % effect (motility), DIROIM L4 ([2]; 2 µM): 0%; % effect (motility), DIROIM L4 ([2]; 10 µM): 0%; % effect (motility), DIROIM L4 ([2]; 50 µM): 0%
O=[N+]([O-])c1cccc(CN2CCN(C3CCCCC3)CC2)c1 [Nemacol-14]	0%	0%	0%	0%	0%	> 60 µM	0.8333%	0	0	20 and 19	0 and 1	0%	0	0	20	0	6.667%	0 and 2	0 and 2	20 and 18 and 16	mean % any phene (coiled, jerky-Unc or paralyzed) (Pristionchus pacificus; [3]): 0%; mean % any phene (coiled, jerky-Unc or paralyzed) (Pristionchus pacificus; conc 15, observed at one hour): 0.8333%; mean % any phene (coiled, jerky-Unc or paralyzed) (Pristionchus pacificus; conc 60, observed at one hour): 12.5%; paralyzed (number of animals) (C. elegans; 60uM): 0; EC50 (C. elegans): > 60 µM; % effect (motility), DIROIM L4 ([2]; 2 µM): 0%; % effect (motility), DIROIM L4 ([2]; 10 µM): 5%; % effect (motility), DIROIM L4 ([2]; 50 µM): 5%
O=[N+]([O-])c1ccc(CN2CCN(C3CCCC3)CC2)cc1 [Nemacol-15]	0%	0%	0%	0%	0%	> 60 µM	0%	0	0	20	0	2.5%	0 and 1 and 2	0	20 and 19 and 18	0	23.3333%	2 and 1 and 4 and 5 and 9	0	18 and 19 and 15 and 14 and 11	paralyzed (number of animals) (C. elegans; 60uM): 0 and 3 and 2; EC50 (C. elegans): > 60 µM; % effect (motility), DIROIM L4 ([2]; 2 µM): 5%; % effect (motility), DIROIM L4 ([2]; 10 µM): 0%; % effect (motility), DIROIM L4 ([2]; 50 µM): 10%
O=C(C1CCCCC1)N1CCN(c2ccc([N+](=O)[O-])cc2)CC1 [Nemacol-16]	0%	0%	0%	0%	40%	> 60 µM	0.8333%	0 and 1	0	20 and 19	0	0.8333%	0	0	20 and 19	0 and 1	4.167%	4 and 1 and 0	0	16 and 19 and 20	mean % any phene (coiled, jerky-Unc or paralyzed) (Pristionchus pacificus; [3]): 0% and 3.333%; mean % any phene (coiled, jerky-Unc or paralyzed) (Pristionchus pacificus; conc 15, observed at one hour): 8.333% and 5%; mean % any phene (coiled, jerky-Unc or paralyzed) (Pristionchus pacificus; conc 60, observed at one hour): 36.6667%; paralyzed (number of animals) (C. elegans; 60uM): 0; EC50 (C. elegans): > 60 µM; % effect (motility), DIROIM L4 ([2]; 2 µM): 0%; % effect (motility), DIROIM L4 ([2]; 10 µM): 10%; % effect (motility), DIROIM L4 ([2]; 50 µM): 35%
